Data on one compound can be found in paper PMC7614775 (Nature chemical biology, 2022).

Each structure is given as a SMILES string. Some results are limits rather than exact numbers.

The subject of one data set is primary human T cells. Description: T-cell viability (Near IR Live/Dead stain). The class given is cell-based. The conditions noted are these: 24 h.
For data set [1], the target named is recombinant purified JAK1 (aa 438 – 1154) (Homo sapiens, UniProt P23458). Description: In vitro kinase (peptide substrate, ADP-Glo) assay. The class given is biochemical.
A further data set has as its target JAK1_C817 (Homo sapiens, UniProt P23458). As to the kind of experiment: Targeted MS-ABPP target engagement (TE50) in human cell lysates. The class given is binding.
Data set [2] relates to IFNα-stimulated STAT1 phosphorylation. As to the kind of experiment: Phospho-STAT western blot in human PBMCs. In kind it is cell-based. The conditions noted are these: 0.1 µM.
For data set [3], the target named is recombinant TYK2 (WT, C838A) (Homo sapiens, UniProt P29597). As to the kind of experiment: Gel-based ABPP in 22Rv1 cells. In kind it is binding. The conditions noted are these: pre-treatment 0.01–1 μM, 2 h, in situ.
Data set [4] relates to prolactin (PRL)-stimulated STAT5 (JAK2-dependent) phosphorylation. Description: Phospho-STAT western blot in 22Rv1 cells expressing JAK1 variants. The class given is cell-based, human. The conditions noted are these: 2 µM, 2 h. (In western blotting, separated proteins are transferred to a membrane and probed.)
Data set [5] deals with IFNα-stimulated STAT1 phosphorylation (TYK2-dependent). Description: Phospho-STAT western blot in 22Rv1 cells expressing TYK2 variants. In kind it is cell-based, human. The conditions noted are these: WT-TYK2 expressing 22Rv1 cells; 2 h.
For data set [6], the system named is IL-2-stimulated STAT5 phosphorylation. As to the kind of experiment: Phospho-STAT western blot in human PBMCs. The class given is cell-based. The conditions noted are these: 0.1–1 µM.
Data set [7] addresses JAK1 trans-phosphorylation (Homo sapiens, UniProt P23458). As to the kind of experiment: Trans-phosphorylation assay in 22Rv1 cells. In kind it is cell-based. The conditions noted are these: cells expressing active WT-JAK1-FLAG; 2 µM, 2 h.
Data set [8] concerns αCD3/αCD28-stimulated primary human T cells (CD25, CD69). Description: T-cell activation analysis by flow cytometry. In kind it is cell-based. The conditions noted are these: 24 h. (In general: A flow cytometer gives signals particle by particle.)
A further data set addresses T1, HMOX2_C282 (Homo sapiens, UniProt P30519).
T1 sequence (P30519 1-316): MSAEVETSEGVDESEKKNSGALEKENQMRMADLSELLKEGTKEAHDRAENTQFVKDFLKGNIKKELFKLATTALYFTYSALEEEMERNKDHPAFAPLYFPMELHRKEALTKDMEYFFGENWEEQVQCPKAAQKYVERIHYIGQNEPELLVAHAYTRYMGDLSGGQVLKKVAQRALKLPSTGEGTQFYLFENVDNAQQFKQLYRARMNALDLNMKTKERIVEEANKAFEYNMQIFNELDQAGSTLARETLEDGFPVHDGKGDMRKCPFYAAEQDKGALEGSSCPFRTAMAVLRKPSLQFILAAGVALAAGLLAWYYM
Description: Untargeted cysteine MS-ABPP, human PBMCs treated in situ. In kind it is binding.

The next data set relates to GM-CSF-STAT5 signaling. Description: Phospho-STAT western blot in mouse splenocytes. In kind it is cell-based.

Sequence of JAK1_C817 (P23458 whole entry): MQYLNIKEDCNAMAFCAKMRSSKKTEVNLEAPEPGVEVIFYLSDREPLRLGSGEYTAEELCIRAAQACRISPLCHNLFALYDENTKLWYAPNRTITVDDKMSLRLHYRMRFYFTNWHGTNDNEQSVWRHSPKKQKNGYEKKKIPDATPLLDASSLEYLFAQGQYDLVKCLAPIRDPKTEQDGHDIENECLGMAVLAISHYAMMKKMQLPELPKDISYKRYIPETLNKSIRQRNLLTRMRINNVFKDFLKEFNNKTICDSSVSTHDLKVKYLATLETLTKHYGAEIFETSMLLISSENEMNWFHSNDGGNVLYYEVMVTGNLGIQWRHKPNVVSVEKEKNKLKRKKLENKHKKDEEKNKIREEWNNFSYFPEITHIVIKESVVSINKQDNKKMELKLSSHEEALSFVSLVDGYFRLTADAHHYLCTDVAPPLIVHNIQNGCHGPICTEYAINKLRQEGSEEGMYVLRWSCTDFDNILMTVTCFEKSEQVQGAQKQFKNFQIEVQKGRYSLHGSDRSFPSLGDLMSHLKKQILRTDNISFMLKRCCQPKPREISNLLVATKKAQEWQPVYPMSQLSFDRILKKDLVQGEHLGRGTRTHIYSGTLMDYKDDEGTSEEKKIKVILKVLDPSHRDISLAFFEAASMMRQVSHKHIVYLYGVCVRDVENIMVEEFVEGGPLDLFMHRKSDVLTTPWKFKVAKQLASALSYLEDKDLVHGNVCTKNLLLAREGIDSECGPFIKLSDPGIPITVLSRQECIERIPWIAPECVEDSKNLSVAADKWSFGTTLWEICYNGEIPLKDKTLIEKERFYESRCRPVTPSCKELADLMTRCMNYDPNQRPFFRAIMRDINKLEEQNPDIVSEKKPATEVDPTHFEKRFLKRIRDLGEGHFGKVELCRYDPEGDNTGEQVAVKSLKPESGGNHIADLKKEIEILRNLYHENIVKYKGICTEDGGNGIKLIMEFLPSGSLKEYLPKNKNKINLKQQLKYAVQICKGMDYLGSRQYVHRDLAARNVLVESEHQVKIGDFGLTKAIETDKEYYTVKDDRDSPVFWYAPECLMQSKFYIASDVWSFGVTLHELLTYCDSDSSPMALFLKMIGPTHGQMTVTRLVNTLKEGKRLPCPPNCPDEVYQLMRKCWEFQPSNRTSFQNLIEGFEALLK
Sequence of recombinant purified JAK1 (aa 438 – 1154) (P23458 438-1154): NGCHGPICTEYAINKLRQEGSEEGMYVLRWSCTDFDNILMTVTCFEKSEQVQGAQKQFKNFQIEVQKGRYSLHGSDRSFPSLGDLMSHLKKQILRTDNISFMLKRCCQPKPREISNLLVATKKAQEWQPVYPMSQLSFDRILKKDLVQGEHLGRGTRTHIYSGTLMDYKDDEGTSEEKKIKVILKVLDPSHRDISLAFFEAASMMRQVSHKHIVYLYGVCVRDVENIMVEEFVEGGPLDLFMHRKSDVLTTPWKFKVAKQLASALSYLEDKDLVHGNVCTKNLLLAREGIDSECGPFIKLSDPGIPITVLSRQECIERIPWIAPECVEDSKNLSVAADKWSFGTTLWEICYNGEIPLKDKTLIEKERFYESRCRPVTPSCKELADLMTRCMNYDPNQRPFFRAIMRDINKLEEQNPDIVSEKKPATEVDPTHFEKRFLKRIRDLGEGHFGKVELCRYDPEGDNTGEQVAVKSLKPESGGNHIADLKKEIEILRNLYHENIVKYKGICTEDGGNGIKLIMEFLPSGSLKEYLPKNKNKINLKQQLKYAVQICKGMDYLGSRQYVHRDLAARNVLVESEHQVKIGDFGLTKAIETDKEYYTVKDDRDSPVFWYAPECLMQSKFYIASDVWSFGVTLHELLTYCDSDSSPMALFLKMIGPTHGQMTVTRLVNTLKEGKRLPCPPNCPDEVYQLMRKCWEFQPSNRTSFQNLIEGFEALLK
Sequence of JAK1 trans-phosphorylation (P23458 whole entry): as the sequence (P23458 whole entry) above
Sequence of recombinant TYK2 (WT, C838A) (P29597 whole entry C838A): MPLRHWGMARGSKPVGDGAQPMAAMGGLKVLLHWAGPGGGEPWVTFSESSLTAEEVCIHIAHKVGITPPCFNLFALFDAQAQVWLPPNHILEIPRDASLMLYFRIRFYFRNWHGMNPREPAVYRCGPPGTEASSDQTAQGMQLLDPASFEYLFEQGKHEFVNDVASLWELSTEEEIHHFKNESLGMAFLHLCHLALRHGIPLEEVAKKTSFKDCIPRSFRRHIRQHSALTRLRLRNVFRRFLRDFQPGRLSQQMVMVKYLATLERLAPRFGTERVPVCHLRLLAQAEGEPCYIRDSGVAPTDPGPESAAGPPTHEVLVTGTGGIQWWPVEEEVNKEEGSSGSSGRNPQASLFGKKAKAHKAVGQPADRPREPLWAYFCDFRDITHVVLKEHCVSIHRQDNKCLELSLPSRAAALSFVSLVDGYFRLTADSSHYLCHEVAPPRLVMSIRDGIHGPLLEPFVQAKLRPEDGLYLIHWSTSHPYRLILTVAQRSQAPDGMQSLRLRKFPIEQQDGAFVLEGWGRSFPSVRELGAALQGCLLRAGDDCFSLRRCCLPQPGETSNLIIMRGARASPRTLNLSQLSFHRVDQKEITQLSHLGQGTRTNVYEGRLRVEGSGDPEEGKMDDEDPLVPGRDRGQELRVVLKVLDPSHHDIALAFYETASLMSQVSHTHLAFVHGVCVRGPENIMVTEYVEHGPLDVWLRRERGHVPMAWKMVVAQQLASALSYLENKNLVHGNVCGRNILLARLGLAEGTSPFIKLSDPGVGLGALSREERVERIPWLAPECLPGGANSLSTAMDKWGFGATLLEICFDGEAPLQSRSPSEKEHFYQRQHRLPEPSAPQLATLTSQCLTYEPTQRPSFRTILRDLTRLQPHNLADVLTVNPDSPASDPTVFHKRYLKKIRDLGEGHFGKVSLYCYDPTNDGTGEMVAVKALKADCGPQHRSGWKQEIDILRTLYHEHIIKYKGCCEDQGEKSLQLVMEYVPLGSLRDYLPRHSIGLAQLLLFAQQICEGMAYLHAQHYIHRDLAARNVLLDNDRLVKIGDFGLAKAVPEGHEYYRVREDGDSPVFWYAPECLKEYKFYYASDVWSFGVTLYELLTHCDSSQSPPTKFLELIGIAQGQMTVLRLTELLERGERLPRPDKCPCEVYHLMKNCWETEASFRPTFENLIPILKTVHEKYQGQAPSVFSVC

Turning to `CS(=O)(=O)N1CC[C@H](C#CC(=O)N2CCC[C@@H](c3ccc(Cl)c(Cl)c3)C2)C1` [VVD-118313], in the data set with primary human T cells, the T-cell viability result is recorded as “Neither compound affected”. Also, the “effect on catalytic activity of recombinant purified JAK1” value in [1] (peptide substrate assay) is given as “did not inhibit”. Besides, the IC50 in data set [1] (read-out: IC50, JAK1 substrate assay, 30 min preincubation, IRS-1 peptide, ATP 50 µM, 1 h) is more than 50 µM. Besides, at JAK1_C817 (Jurkat T-cell lysate, 10, 30 and 60 minutes), the “change of TE50 with preincubation time” value is on record as “time-dependent decreases”. For the same compound, the “potency compared with the corresponding diastereomers (5c and 5d)” value at JAK1_C817 (TE50 and pSTAT pIC50) is “substantially more potent”. For the same compound, the “inhibition of IFNα-stimulated STAT1 phosphorylation” value in data set [2] is on record as more than 85%. In data set [3], the “competition of probe 6 reactivity with WT-TYK2” value was “blocked probe 6 reactivity”. Besides, in data set [4], the “effect on PRL-induced STAT5 phosphorylation” value was “inactive”. Further, in data set [5], the “effect on IFNα-induced STAT1 phosphorylation” value is recorded as “blocked”. Also, the “inhibition of IL-2-stimulated STAT5 phosphorylation” value in data set [6] is reported as ~ 70%. Further, the “effect on trans-phosphorylation of inactive JAK1-HA variants” value in [7] is “completely blocked”. The “CD25+ (% of live cells)” value in data set [8] (0.4 μM, representative flow cytometry plot) worked out at 83%. Further, in data set [8] (αCD3/αCD28 co-stimulation), the “T-cell activation (proportion of CD25+ T-cells)” value is “partially inhibited”. Also, in data set [8] (αCD3/αCD28 co-stimulation), the “early-stage activation marker CD69” value is listed as “Neither compound affected”. The “Engagement Ratio (DMSO/VVD-118313)” value at HMOX2_C282 (0.01 µM) stood at 1.0; at HMOX2_C282 (0.1 µM), 1.4; on HMOX2_C282 (1 µM), 12.5; at HMOX2_C282 (10 µM), 20.0. For the same compound, the “%Engagement” value is 27% on HMOX2_C282 (0.1 µM), “engaged” at HMOX2_C282 (1 µM) and 98% on HMOX2_C282 (10 µM). Further, in the data set with GM-CSF-STAT5 signaling, the “effect on GM-CSF-STAT5 signaling” value is recorded as “sparing”.

As a reminder, the IC50 is the midpoint of a concentration-inhibition curve.
